# In patent EP0732399A2 (CEPHALON, INC., priority 1990, dated 1991):
# Where “and” joins values, the source holds several entries; their conditions need not be identical. Equal entries are not always repeated. Entries after “also recorded” stand apart in the source; their conditions may differ. Where two headings read alike, the source gives them in different places. Square brackets hold non-standard residues; d marks the D form. Peptide text beside a SMILES is read from it. * marks the point of attachment. Sta = CC(C)C[C@H](N)[C@@H](O)CC(=O)O; Isovaleryl = CC(C)CC(=O)*; MeOSuc = COC(=O)CCC(=O)*; CH2Cl = ClC*
# Columns and labels:
# chymase [1] = biological target: T1, chymase (Rattus norvegicus, UniProt P09650); test: Inhibition of purified brain chymase (pNa substrate hydrolysis); assay type: biochemical
# T1 construct: Starting from 18g rat brain, approximately 10µg homogeneous chymase was obtained; from tissue; host or cells: rat forebrain (5-7 day old pups)
# T1 sequence (P09650 21-260): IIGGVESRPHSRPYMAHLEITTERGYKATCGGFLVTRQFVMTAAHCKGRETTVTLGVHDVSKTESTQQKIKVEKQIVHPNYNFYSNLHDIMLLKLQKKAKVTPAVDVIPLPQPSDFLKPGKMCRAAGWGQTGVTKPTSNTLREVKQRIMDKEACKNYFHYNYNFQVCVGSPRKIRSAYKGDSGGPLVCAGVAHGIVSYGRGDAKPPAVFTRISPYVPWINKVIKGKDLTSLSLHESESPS
# Protocol: (§1) During the various protease purification steps, protease activity of all fractions was measured using chromogenic or fluorogenic peptide analogs as substrates. Other methods are available, known to those skilled in the art. One specific example of an activity measurement is described here. Protease activity assays were performed in 96 well microtiter plates, in a total volume of 0.2 mls. Substrates were prepared as 10-20X concentrated stock solutions in DMSO. Therefore, each reaction contained 5-10% DMSO. Reactions were initiated by addition of protease-containing samples to wells already containing substrates, and were maintained at 37°C. Control wells received either protease without substrate, or substrate without protease. The release of reporter moities by proteolytic cleavage was followed as a function of time by either spectrophotometry (e.g., for pNa substrates, change in absorbance with time at 405 nm) or fluorimetry (e.g., for AMC substrates, change in fluorescence with time using excitation at 390 nm and emission at 460 nm). Maximum velocity of reactions was determined while substrate hydrolysis increased linearly as a function of time.
# [2] = tested on: human brain multicatalytic protease; assay type: biochemical; settings: qualitative, no concentration stated
# Protocol: as §1
# Human cerebral cortex (courtesy National Neurological Research Bank, Los Angeles, CA.) was obtained at autopsy and stored at -70°C until use. All procedures were conducted at 4 °C unless noted otherwise. […] Triton X-100 was added to 0.5%, the homogenate was stirred for 1 hr., then centrifuged at 40,000 x g for 1 hr. The supernatant, containing the multicatalytic protease, was dialyzed against 20 mM Tris-HCl (pH 8.0),1% glycerol. The following day, the dialysate was loaded on a column (150 ml bed volume) of DEAE-Sepharose Fast Flow (Pharmacia, Piscataway, N.J.) equilibrated in the dialysis buffer. Unbound material was removed with ∼300 mls dialysis buffer, then bound material was eluted with a linear NaCl gradient from 0 mM to 400 mM (1.5 liters total). Fractions of 15 ml were collected and assayed for multicatalytic protease activity (see below).
# chymase [3] = test: Purified chymase; settings: rat, room temperature, up to 48 hrs
# cathepsin G [4] = test: cathepsin G; settings: 37°C
# chymase [5] = test: purified rat brain chymase; settings: 37°C
# chymotrypsin [6] = test: chymotrypsin; settings: 37°C
# [7] = high salt extract preparation (1 M MgCl2) of human brain samples
# chymotrypsin [8] = test: chymotrypsin (Fig. 6 panel B); settings: 37°C
# cathepsin G [9] = test: cathepsin G (Fig. 6 panel C); settings: 37°C
# multicatalytic protease [10] = test: multicatalytic protease purified from human brain; settings: 37°C
# chymase [11] = test: human brain chymase purified from human cerebral cortex; settings: 37°C
# human brain chymase = biological target: T2, human brain chymase (Homo sapiens, UniProt P23946)
# T2 sequence (P23946 22-247): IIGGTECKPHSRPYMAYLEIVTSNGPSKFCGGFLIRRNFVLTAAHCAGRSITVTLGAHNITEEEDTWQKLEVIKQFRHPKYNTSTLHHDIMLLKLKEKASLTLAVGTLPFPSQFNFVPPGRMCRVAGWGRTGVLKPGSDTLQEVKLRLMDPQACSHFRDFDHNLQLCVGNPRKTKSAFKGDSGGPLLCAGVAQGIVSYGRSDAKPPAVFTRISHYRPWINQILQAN
# Text: Samples obtained post-mortem from human cerebral cortex (courtesy of the National Neurological Research Bank) were fractionated as described above for preparation of rat brain chymase. […] Protease was further purified on a heparin-Sepharose column in a manner similar to purification of rat brain chymase. […] The enzyme bound to the column in 0.4 M NaCl and was eluted by increasing the NaCl concentration to 0.7-0.9 M.
# Next, chymase was purified using a chymase inhibitor coupled to resin, lima bean trypsin inhibitor-agarose (Sigma, St. Louis, MO.). […] Chymase-containing fractions from the heparin eluate were pooled, concentrated to 10 ml, and loaded on a 1 ml bed volume of lima bean trypsin inhibitor-agarose. The column was washed with Hepes buffer containing 0.5 M NaCl (5 vol), then with water (5 vol). Chymase was eluted with 2 mM HCl, and was immediately neutralized with Tris-HCl (0.2 M final concentration, pH 8.0) containing 0.5 M NaCl.
# cathepsin G [12] = biological target: T3, cathepsin G (Homo sapiens, UniProt P08311); test: Substrate cleavage by cathepsin G; assay type: biochemical
# T3 sequence (P08311 21-255): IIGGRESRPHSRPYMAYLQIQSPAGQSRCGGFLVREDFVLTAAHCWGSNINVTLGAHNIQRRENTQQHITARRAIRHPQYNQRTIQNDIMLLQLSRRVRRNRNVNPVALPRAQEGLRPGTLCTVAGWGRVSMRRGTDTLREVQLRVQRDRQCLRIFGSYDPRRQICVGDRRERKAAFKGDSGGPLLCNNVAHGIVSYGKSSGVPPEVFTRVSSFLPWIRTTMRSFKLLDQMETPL
# Protocol: as §1
# (§2) Contrary to expectation, not all chymotrypsin-like proteases were able to cleave MeOSuc-Glu-Val-Lys-Met-pNa (Figure 6; EVKM using the one letter amino acid code). […]
# chymotrypsin [13] = test: Substrate cleavage by chymotrypsin; assay type: biochemical
# Protocol: as §1, §2
# chymase [14] = biological target: T1, chymase; test: Substrate cleavage by brain chymase; assay type: biochemical
# Protocol: as §1
# multicatalytic protease [15] = biological target: T4, multicatalytic protease (Homo sapiens, UniProt P28074); test: Substrate cleavage by multicatalytic protease; assay type: biochemical
# T4 construct: Human cerebral cortex (courtesy National Neurological Research Bank, Los Angeles, CA.) was obtained at autopsy; from tissue; host or cells: human cerebral cortex, post mortem
# Protocol: as §1
# Human cerebral cortex (courtesy National Neurological Research Bank, Los Angeles, CA.) was obtained at autopsy and stored at -70°C until use. All procedures were conducted at 4 °C unless noted otherwise. […]
molecule,measurement,setting,value
COC(=O)CCC(=O)N[C@@H](CCC(=O)O)C(=O)N[C@H](C(=O)N[C@@H](CCCCN)C(=O)N[C@@H](Cc1ccccc1)C(=O)CCl)C(C)C (MeOSuc-EVKF-CH2Cl),Ki,chymase [1]; Ki,< 20 nM
"COC(=O)CCC(=O)N[C@@H](CCC(=O)O)C(=O)N[C@H](C(=O)N[C@@H](CCCCN)C(=O)N[C@H](C=O)Cc1ccccc1)C(C)C [MeOSuc-Glu-Val-Lys-Phe-al, MeOSuc-Glu-Val-Lys-Phenylalaninal] (MeOSuc-EVKF-aldehyde)",Ki,chymase [1]; read-out: Ki,< 20 nM and 15 nM
CC(C)C[C@H](NC(=O)[C@@H](NC(=O)N[C@@H](Cc1ccccc1)C(=O)O)[C@@H]1CCN=C(N)N1)C(=O)N[C@H](C=O)Cc1ccccc1 [chymostatin],inhibition of multicatalytic protease activity,[2],inhibition
CC(=O)N[C@@H](CC(C)C)C(=O)N[C@@H](CC(C)C)C(=O)N[C@H](C=O)CCCNC(=N)N [leupeptin],inhibition of multicatalytic protease activity,[2],not
c1cnc2c(c1)ccc1cccnc12 [o-phenanthroline],inhibition of multicatalytic protease activity,[2],not
CC(C)CC(=O)N[C@H](C(=O)N[C@H](C(=O)N[C@@H](CC(C)C)[C@@H](O)CC(=O)N[C@@H](C)C(=O)N[C@@H](CC(C)C)[C@@H](O)CC(=O)O)C(C)C)C(C)C [pepstatin] (Isovaleryl-VV[Sta]A[Sta]-OH),inhibition of multicatalytic protease activity,[2],not
O=S(=O)(F)Cc1ccccc1 [phenylmethylsulfonylfluoride],inhibition of multicatalytic protease activity,[2],not
Glu-Val-Lys-Met-Asp-Ala-Glu-Phe-Arg-His-Asp-Ser-Gly-Tyr-Glu-Val-His-His-Gln,cleaved bond,chymase [3],"Met596-Asp597, 45 minutes"
MeOSuc-Ala-Ala-Pro-Met-pNa,cleaved bond,cathepsin G [4],Met-pNa
same,cleaved bond,chymase [5],Met-pNa
same,cleaved bond,chymotrypsin [6],Met-pNa
MeOSuc-Ala-Ala-Pro-Phe-pNa,cleaved bond,[7],Phe-pNa
MeOSuc-Glu-Val-Lys-Met-pNa,cleaved bond,chymase [5],Met-pNa
same,not cleaved,chymotrypsin [8],essentially without effect
same,not cleaved,cathepsin G [9],essentially without effect
same,cleaved bond,multicatalytic protease [10],Met-pNa
same,cleaved bond,chymase [11],Met-pNa
MeOSuc-Glu-Val-Lys-Phe-pNa,cleaved bond,chymase [5],Phe-pNa
Suc-Ala-Ala-Pro-Phe-pNa,cleaved bond,chymase [5],Phe-pNa
same,cleaved bond,chymase [11],Phe-pNa
methoxysuccinyl-glutamyl-valyl-lysyl-methionine-p-nitroanili de [MeOSuc-Glu-Val-Lys-Met-pNa],substrate hydrolysis by human brain chymase,human brain chymase,hydrolyzed
same,substrate cleavage by cathepsin G,cathepsin G [12],essentially without effect
same,substrate cleavage by chymotrypsin,chymotrypsin [13],essentially without effect
same,substrate cleavage by chymase,chymase [14],readily degraded
same,substrate cleavage by multicatalytic protease,multicatalytic protease [15],readily degraded; also recorded: unusual ability to cleave
